Laboratory results reported in patent publication US8546091B2, “AKT phosphorylation at Ser473 as an indicator for taxane-based chemotherapy” (The United States of America, as represented by the …, priority 2009, dated 2013).
Read-outs that look alike come from different tables or passages of the source.

Columns and labels:
[1] = tested on: node-positive breast cancer; assay type: in vivo, human
Source text: We designed and conducted a study to correlate Akt phosphorylation with clinical outcome through the primary tumor specimens from the National Surgical Adjuvant Breast and Bowel Project B-28 trial. We tested the hypothesis that phosphorylation of Akt at serine 473 (“pAkt”) predicts a benefit for women with node-positive breast cancer from the sequential addition of paclitaxel after adjuvant doxorubicin plus cyclophosphamide chemotherapy.
Eligible patients signed an approved informed consent which includes tissue collection and research use of collected tissue conforming to federal and institutional guidelines. In this study, the biomarker protocol for the evaluation of Akt phosphorylation in association with disease-free survival and overall survival in patients with node-positive breast cancer treated with either adjuvant doxorubicin plus cyclophosphamide only or followed by paclitaxel was approved by the Institutional Review Boards of the National Cancer institute (Bethesda, Md.) and the National Surgical Adjuvant Breast and Bowel Project (Pittsburgh, Pa.).
HER2 status on the microarray sections were determined by the NSABP central pathology laboratory using PathVision fluorescent in situ hybridization (FISH) assay according to the FDA approved protocol per the manufacturer (Vysis, Downers Grove. Ill.). Data were expressed as the number of HER2 genes per chromosome 17 centromere: tumors with a ratio of […] were classified as HER2-positive, and those with a ratio of <2 were defined as HER2-negative. Estrogen receptor status in tissue microarray sections were also determined by the NSABP central pathology laboratory by immunohistochemistry according to the FDA approved protocol provided by DAKO (PharmDx kit; Carpinteria, Calif.). A positive result (tumor cell nuclear staining) for ER is defined as a total score (ranging from 0, 2-8) of ≧3. The total score is the sum of a proportion score from 0 to 5 and an intensity score of 0 to 3.
Sections were incubated with primary antibody in 1 to 100 dilution for 1 hour at room temperature, and binding of the antibody to its antigenic sites was amplified using Vectastain Elite avidin-biotin peroxidase complex kits (Vector Laboratories, Burlingame, Calif.). The antigen-antibody reaction sites were visualized using 3,3-diaminobenzidine for 7 minutes and, subsequently, sections were counterstained with Mayer's hematoxylin. Breast cancer cell line MDA-MB-468 which expresses pAkt, and a breast cancer specimen known to express pAkt were utilized as positive controls. Negative control was performed using isotype immunoglobulins appropriate to the primary antibodies being used (Zymed Laboratories, South San Francisco, Calif.). The immunostained tissue microarray cores with either cytoplasmic or membranous or nuclear signal were analyzed with the assistance of an Automated Cellular Imaging System (DAKO), blinded to all clinical information, after excluding tissue cores with less than 5% of invasive tumor cells present. The staining intensity and percentage of tumor cells on each tissue core was calculated by the digital imaging system. The staining index ranging from 0 to 62.8 reporting levels of Akt phosphorylation at Ser473 was determined by the percentage multiplied by intensity of staining divided by 100 (intensity X percentage/100) in tumor cells, in which the intensity was subtracted from the average tissue readout of three normal tissue cores. These cores serve as the position markers and tissue negative controls for each array slide.

[2] = tested on: node-positive breast cancer; conditions: NSABP B-28, Mamounas et al. 2005; paclitaxel after AC vs AC alone; cited from earlier work
cancer cells = conditions: literature (MacKeigan 2002; Asakuma 2003); cited from earlier work
[3] = tested on: Akt phosphorylation at serine 473; conditions: literature (MacKeigan 2002; Asakuma 2003); cited from earlier work

For CC(=O)O[C@H]1C(=O)[C@@]2(C)[C@H]([C@H](OC(=O)c3ccccc3)[C@]3(O)C[C@H](OC(=O)[C@H](O)[C@@H](NC(=O)c4ccccc4)c4ccccc4)C(C)=C1C3(C)C)[C@]1(OC(C)=O)CO[C@@H]1C[C@@H]2O [paclitaxel], the “hazard ratio for disease-free survival” value ([1]; 606 patients with pAkt positive cancer, with vs without paclitaxel, FIG. 1B, P=0.027) was 0.75, the “hazard ratio for disease-free survival” value ([1]; 975 patients with pAkt-negative cancer, with vs without paclitaxel, FIG. 1A, P=0.44) was 1.08 and the “hazard ratio for overall survival” value ([1]; 1581 patients with pAkt measurement, follow-up 9.1 years, 95% CI 0.79-1.15, P=0.63) was 0.96. For the same compound, the “hazard ratio for disease-free survival” value ([1]; 1581 patients with pAkt measurement, follow-up 9.1 years, 95% CI 0.81-1.10, P=0.46) was 0.94, the “improvement in disease-free survival” value ([1]; entire B-28 population with pAkt-Ser473 measurements, positive or negative, approximate 10 years of follow-up) was 6% and the “hazard ratio for overall survival” value ([1]; entire B-28 population, approximate 10 years of follow-up, addition of paclitaxel to AC vs AC, 95% CI 0.81-1.06, P=0.25) was 0.92. For the same compound, the “hazard ratio for disease-free survival” value ([1]; entire B-28 population, approximate 10 years of follow-up, sequential addition of paclitaxel to AC vs AC, 95% CI 0.79 to 0.99, P=0.034) was 0.89, the “adjusted hazard ratio for disease-free survival” value ([1]; pAkt negative cancer, multivariate proportional-hazards model, FIG. 1C, P=0.81) was 1.02 and the “adjusted hazard ratio for disease-free survival” value ([1]; pAkt positive breast cancer, multivariate proportional-hazards model, FIG. 1C, P=0.02) was 0.74. For the same compound, the “hazard ratio for overall survival” value ([1]; pAkt-negative cancer, P=0.74) was 1.04, the “adjusted hazard ratio for disease-free survival” value ([1]; pAkt-negative, HER2-negative tumors, FIG. 3C, P=0.36) was 1.12 and the “adjusted hazard ratio for disease-free survival” value ([1]; pAkt-negative, HER2-positive tumors, FIG. 3A, P=0.88) was 0.96. For the same compound, the “adjusted hazard ratio for disease-free survival” value ([1]; pAkt-negative, estrogen-receptor positive tumors, FIG. 2A, P=0.64) was 1.06, the “adjusted hazard ratio for disease-free survival” value ([1]; pAkt-negative, estrogen-receptor-negative tumors, FIG. 2C, P=0.79) was 1.04 and the “improvement in disease-free survival” value ([1]; pAkt-positive breast cancer, sequential addition of paclitaxel) was 26%. For the same compound, the “hazard ratio for overall survival” value ([1]; pAkt-positive cancer, P=0.226) was 0.83, the “adjusted hazard ratio for disease-free survival” value ([1]; pAkt-positive, HER2-negative tumors, FIG. 3D, P=0.03) was 0.70 and the “adjusted hazard ratio for disease-free survival” value ([1]; pAkt-positive, HER2-positive tumors, FIG. 3B, P=0.28) was 0.72. For the same compound, the “adjusted hazard ratio for disease-free survival” value ([1]; pAkt-positive, estrogen receptor-negative tumors, FIG. 2D, P=0.052) was 0.66, the “adjusted hazard ratio for disease-free survival” value ([1]; pAkt-positive, estrogen receptor-positive tumors, FIG. 2B, P=0.24) was 0.82 and the “effect on disease-free and overall survival” value [2] was “significantly improve disease-free survival but not overall survival”. For the same compound, the “effect on survival of cancer cells” value (cancer cells) was “reduces the survival cancer cells” and the “effect on Akt phosphorylation at serine 473” value [3] was “inhibits Akt phosphorylation at serine 473”.
